Data taken from BindingDB's records for doi:10.1016/j.bmcl.2004.03.067 (Pfizer, 2004).

Experiments:
[1] = Inhibition of Phosphodiesterase 5
[2] = Inhibition of Phosphodiesterase 5; remark: listed apart in the source

Compound | IC50 [1] | IC50 [2]
COc1cc2c3c(n1)C(c1ccccc1)=N[C@@H](NC(=O)c1cccnc1)C(=O)N3CC2 | > 100 µM | –
COc1cc2c3c(n1)C(c1ccccc1)=NCC(=O)N3CC2 [4-Methoxy-6-phenyl-1,2-dihydro-8H-5,7,9a-triaza-benzo[cd]azulen-9-one] | 91 µM | –
COc1cc2c3c(n1)C(c1ccccc1)=NC(NC(=O)c1cccnc1)C(=O)N3CC2 (centres undefined) [N-(4-methoxy-9-oxo-6-phenyl-1,2,8,9-tetrahydro-5,7,9a-triazabenzo[cd]azulen-8-yl)nicotinamide] | > 100 µM | 95 µM
